What was measured:
α-glucosidase = settings: compared with marketed synthetic medicine Glucobay; cited from earlier work
α-glucosidase (sucrase) = target: T1, α-glucosidase (sucrase) (Rattus norvegicus, UniProt P23739); test: Measurement of sucrase (α-glucosidase) inhibiting activity with crude enzyme from rat intestinal acetone powder; assay type: biochemical; settings: for IC50: crude rat intestinal enzyme, sucrose substrate, 0.1 M maleate buffer pH 6.0, 37° C., 30 minutes; for α-glucosidase inhibiting activity (in words): summary of Table 1 results
T1 construct: The resulting supernatant was separated as a crude enzyme stock solution; tissue SIGMA; host or cells: rat intestine (acetone powder)
T1 sequence (P23739 whole entry): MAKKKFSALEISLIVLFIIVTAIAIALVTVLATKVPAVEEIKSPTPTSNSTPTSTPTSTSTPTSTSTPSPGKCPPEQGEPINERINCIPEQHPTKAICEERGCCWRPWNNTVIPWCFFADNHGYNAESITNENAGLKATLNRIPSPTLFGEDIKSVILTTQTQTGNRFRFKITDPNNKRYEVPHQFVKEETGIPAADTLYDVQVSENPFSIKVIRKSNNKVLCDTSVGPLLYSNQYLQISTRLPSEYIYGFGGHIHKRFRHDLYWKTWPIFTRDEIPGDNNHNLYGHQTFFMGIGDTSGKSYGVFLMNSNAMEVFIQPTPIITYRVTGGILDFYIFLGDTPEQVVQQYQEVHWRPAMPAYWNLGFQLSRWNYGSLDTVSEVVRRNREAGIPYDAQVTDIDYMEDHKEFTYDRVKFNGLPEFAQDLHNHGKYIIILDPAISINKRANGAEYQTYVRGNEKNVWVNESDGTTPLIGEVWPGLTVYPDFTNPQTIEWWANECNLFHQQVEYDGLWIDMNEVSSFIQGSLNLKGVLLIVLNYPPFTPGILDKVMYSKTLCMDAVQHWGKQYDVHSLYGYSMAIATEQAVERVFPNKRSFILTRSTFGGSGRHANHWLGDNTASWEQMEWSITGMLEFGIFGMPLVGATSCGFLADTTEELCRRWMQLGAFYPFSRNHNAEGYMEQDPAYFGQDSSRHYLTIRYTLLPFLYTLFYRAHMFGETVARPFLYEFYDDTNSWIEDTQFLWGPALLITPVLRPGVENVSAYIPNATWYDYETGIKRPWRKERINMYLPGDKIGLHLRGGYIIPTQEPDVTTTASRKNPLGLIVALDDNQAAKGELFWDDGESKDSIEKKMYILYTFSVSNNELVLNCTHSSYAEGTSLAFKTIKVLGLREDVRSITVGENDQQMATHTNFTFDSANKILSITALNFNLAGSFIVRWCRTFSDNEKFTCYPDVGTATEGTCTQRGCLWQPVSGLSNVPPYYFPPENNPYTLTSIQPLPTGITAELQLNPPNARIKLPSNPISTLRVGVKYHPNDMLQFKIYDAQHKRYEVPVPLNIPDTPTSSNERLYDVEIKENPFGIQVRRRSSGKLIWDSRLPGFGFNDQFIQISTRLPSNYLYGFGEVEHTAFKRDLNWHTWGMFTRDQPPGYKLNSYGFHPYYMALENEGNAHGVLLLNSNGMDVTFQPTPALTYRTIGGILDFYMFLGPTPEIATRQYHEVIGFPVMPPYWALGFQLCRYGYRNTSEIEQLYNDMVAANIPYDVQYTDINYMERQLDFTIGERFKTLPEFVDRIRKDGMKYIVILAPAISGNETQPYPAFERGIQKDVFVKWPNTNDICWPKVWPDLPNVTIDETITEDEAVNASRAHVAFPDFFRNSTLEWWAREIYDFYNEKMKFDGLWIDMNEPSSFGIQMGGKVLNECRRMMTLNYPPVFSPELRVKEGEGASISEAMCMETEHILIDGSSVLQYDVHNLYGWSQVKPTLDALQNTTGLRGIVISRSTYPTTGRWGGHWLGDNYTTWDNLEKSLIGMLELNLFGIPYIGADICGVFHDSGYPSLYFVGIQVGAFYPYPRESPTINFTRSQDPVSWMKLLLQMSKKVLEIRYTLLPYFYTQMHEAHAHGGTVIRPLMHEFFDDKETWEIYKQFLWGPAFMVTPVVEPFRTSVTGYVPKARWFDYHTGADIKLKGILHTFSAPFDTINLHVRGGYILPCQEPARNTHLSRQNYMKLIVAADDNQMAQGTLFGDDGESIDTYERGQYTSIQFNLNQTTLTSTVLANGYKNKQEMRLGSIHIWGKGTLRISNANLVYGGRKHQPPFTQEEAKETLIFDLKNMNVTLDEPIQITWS
Protocol: One gram intestinal acetone powder rat (manufactured by SIGMA) was suspended in 10 mL of 0.1 M maleate buffer, pH 6.0 and then centrifuged (3,000 rpm, 4° C., 20 min.). The resulting supernatant was separated as a crude enzyme stock solution. This crude enzyme stock solution was diluted at the degree of dilution previously determined in the following control test, to prepare a crude enzyme dilution which was then used in the subsequent measurement of sucrase inhibiting activity.
A buffer solution 50 μL and 100 μL of 74 mM aqueous sucrose solution were pipetted into each test tube and pre-heated for 3 minutes in a water bath at 37° C. A diluted crude enzyme stock solution 50 μL was added to this test tube and reacted at 37° C. for 30 minutes. After the reaction was finished, 800 μL purified water was added. The mixture was further heated at 80° C. for 3 minutes thereby inactivating the enzyme to terminate the reaction. The concentration of glucose in the reaction solution was quantified by using a commercial kit/mutarotase-glucose oxidase method (Glucose CII Test Wako, manufactured by Wako Pure Chemical Industries, Ltd.).
As the test substance, the reticulanol of the present invention, and Salacinol and kotalanol for comparison, all of which were obtained in Preparative Example 2 above, were used. A solution […] of the test substance in 0.1 M maleate buffer, pH 6.0 was introduced into each test tube (concentration of the test substance: 3 to 30 μg/mL), and 100 μL of 74 mM aqueous sucrose was pipetted into each test tube and pre-heated for 3 minutes in a water bath at 37° C. The above crude enzyme dilution 50 μL was added to each test tube and reacted at 37° C. for 30 minutes. After the reaction was finished, 800 μL purified water was added to each test tube, and the mixture was further heated at 80° C. for 3 minutes thereby inactivating the enzyme to terminate the reaction.
After the reaction was terminated, the concentration of glucose in the reaction solution was quantified by using the glucose CII Test Wako (manufactured by Wako Pure Chemical Industries, Ltd.).
An aqueous sucrose solution 100 μL was mixed with 50 μL of each test substance dissolved in a maleate buffer. Purified water 800 μL was added thereto and then 50 μL crude enzyme dilution was added thereto, and immediately the mixture was heated to […] to inactivate the enzyme. Thereafter, the concentration of glucose in the reaction solution was measured by the same method as described above.
Sucrase inhibiting activity was calculated from the following equation: Sucrase inhibiting activity (%)={(Glc0−Glcx)/Glc0}×100 wherein Glcx is a value obtained by subtracting the glucose concentration in the corresponding blank test from the concentration of glucose in the test sample, and Glc0 is the glucose concentration in the corresponding control.
An inhibition curve was prepared by plotting the inhibiting activity (%) calculated by the above equation on the ordinate and the concentration of each test substance (μg/mL) on the abscissa. From this inhibition curve, 50% inhibition concentration (IC50 value) was calculated as an indicator of sucrase inhibiting activity.

## O=S(=O)([O-])OC(C(O)C[S+]1CC(O)C(O)C1CO)C(O)C(O)C(O)CO (stereo not drawn) [Kotalanol, kotalanol]
α-glucosidase
  α-glucosidase inhibiting activity compared with Glucobay: almost equivalent
α-glucosidase (sucrase)
  IC50: 424 nM
  α-glucosidase inhibiting activity (in words): very strong α-glucosidase inhibiting activity

## O=S(=O)([O-])OC(C(O)C[S+]1CC(O)C(O)C1CO)C(O)C(O)CO (stereo not drawn) [Reticulanol, reticulanol]
α-glucosidase (sucrase); compared with Salacinol
  α-glucosidase inhibiting activity relative to Salacinol: at least twice as high
α-glucosidase (sucrase)
  IC50: 963 nM
  α-glucosidase inhibiting activity (in words): very strong α-glucosidase inhibiting activity

## O=S(=O)([O-])O[C@H](CO)[C@@H](O)C[S+]1C[C@H](O)[C@@H](O)[C@@H]1CO (stereo partly drawn) [Salacinol]
α-glucosidase
  α-glucosidase inhibiting activity compared with Glucobay: almost equivalent
α-glucosidase (sucrase)
  IC50: 2420 nM
  α-glucosidase inhibiting activity (in words): very strong α-glucosidase inhibiting activity
